Measurements from US20060134102A1, “Lymphotoxin beta receptor agents in combination with chemotherapeutic agents” (Biogen Idec MA Inc., priority 2002, published 2006).
“And” between values parts separate entries of the source, which are not always exact repeats. Equal values may be shown once.

Tested on: KM-20L2 human colorectal adenocarcinoma
Test: KM-20L2 xenograft model: growth of established KM-20L2 human colorectal tumors in athymic nude mice (tumor volume/weight, % T/C, Fa, Combination Index)
Assay type: in vivo

huCBE11: humanized anti-LT-β-R agonist antibody (LTβ receptor-activating mAb), described in WO 02/30986
Mean Fraction Affected (Fa) (huCBE11 2 mg/kg, Day 9): 0.103 | Mean Fraction Affected/Fraction Unaffected (Fa/Fu) (huCBE11 2 mg/kg, Day 9): 0.115 | Mean Tumor Volume (huCBE11 2 mg/kg, Day 9): 100.3 cubic mm | Mean Tumor Volume Decrease (huCBE11 2 mg/kg, Day 9): 11.5 cubic mm | Mean Fraction Affected (Fa) (huCBE11 2 mg/kg, Day 13): 0.057 | Mean Fraction Affected/Fraction Unaffected (Fa/Fu) (huCBE11 2 mg/kg, Day 13): 0.061 | Mean Tumor Volume (huCBE11 2 mg/kg, Day 13): 162.7 cubic mm | Mean Tumor Volume Decrease (huCBE11 2 mg/kg, Day 13): 9.9 cubic mm | Mean Fraction Affected (Fa) (huCBE11 2 mg/kg, Day 16): 0.119 | Mean Fraction Affected/Fraction Unaffected (Fa/Fu) (huCBE11 2 mg/kg, Day 16): 0.135 | Mean Tumor Volume (huCBE11 2 mg/kg, Day 16): 233.5 cubic mm | Mean Tumor Volume Decrease (huCBE11 2 mg/kg, Day 16): 31.5 cubic mm | Mean Fraction Affected (Fa) (huCBE11 2 mg/kg, Day 20): 0.342 | Mean Fraction Affected/Fraction Unaffected (Fa/Fu) (huCBE11 2 mg/kg, Day 20): 0.521 | Mean Tumor Volume (huCBE11 2 mg/kg, Day 20): 263.7 cubic mm | Mean Tumor Volume Decrease (huCBE11 2 mg/kg, Day 20): 137.3 cubic mm | Mean Fraction Affected/Fraction Unaffected (Fa/Fu) (huCBE11 2 mg/kg, Day 23): 0.554 | Mean Tumor Volume (huCBE11 2 mg/kg, Day 23): 339.2 cubic mm | Mean Tumor Volume Decrease (huCBE11 2 mg/kg, Day 23): 188.0 cubic mm | Mean Fraction Affected (Fa) (huCBE11 2 mg/kg, Day 27): 0.419 | Mean Fraction Affected/Fraction Unaffected (Fa/Fu) (huCBE11 2 mg/kg, Day 27): 0.720 | Mean Tumor Volume (huCBE11 2 mg/kg, Day 27): 388.7 cubic mm | Mean Tumor Volume Decrease (huCBE11 2 mg/kg, Day 27): 279.9 cubic mm | Mean Fraction Affected (Fa) (huCBE11 2 mg/kg, Day 30): 0.449 | Mean Fraction Affected/Fraction Unaffected (Fa/Fu) (huCBE11 2 mg/kg, Day 30): 0.813 | Mean Tumor Volume (huCBE11 2 mg/kg, Day 30): 450.1 cubic mm | Mean Tumor Volume Decrease (huCBE11 2 mg/kg, Day 30): 366.1 cubic mm | Mean Fraction Affected (Fa) (huCBE11 2 mg/kg, Day 34): 0.505 | Mean Fraction Affected/Fraction Unaffected (Fa/Fu) (huCBE11 2 mg/kg, Day 34): 1.020 | Mean Tumor Volume (huCBE11 2 mg/kg, Day 34): 519.9 cubic mm | Mean Tumor Volume Decrease (huCBE11 2 mg/kg, Day 34): 530.4 cubic mm | Mean Fraction Affected (Fa) (huCBE11 2 mg/kg, Day 37): 0.520 | Mean Fraction Affected/Fraction Unaffected (Fa/Fu) (huCBE11 2 mg/kg, Day 37): 1.082 | Mean Tumor Volume (huCBE11 2 mg/kg, Day 37): 580.1 cubic mm | Mean Tumor Volume Decrease (huCBE11 2 mg/kg, Day 37): 627.9 cubic mm | Mean Fraction Affected (Fa) (huCBE11 2 mg/kg, Day 41): 0.567 | Mean Fraction Affected/Fraction Unaffected (Fa/Fu) (huCBE11 2 mg/kg, Day 41): 1.310 | Mean Tumor Volume (huCBE11 2 mg/kg, Day 41): 623.2 cubic mm | Mean Tumor Volume Decrease (huCBE11 2 mg/kg, Day 41): 816.2 cubic mm | Mean Fraction Affected (Fa) (huCBE11 2 mg/kg, Day 43): 0.588 | Mean Fraction Affected/Fraction Unaffected (Fa/Fu) (huCBE11 2 mg/kg, Day 43): 1.424 | Mean Tumor Volume (huCBE11 2 mg/kg, Day 43): 662.7 cubic mm | Mean Tumor Volume Decrease (huCBE11 2 mg/kg, Day 43): 944.0 cubic mm | Tumor growth vs vehicle control (huCBE11 4 mg/kg and 2 mg/kg, Days 20-55, separate study): significantly decreased | Mean Fraction Affected (Fa) (huCBE11 4 mg/kg, Day 9): −0.125 | Mean Fraction Affected/Fraction Unaffected (Fa/Fu) (huCBE11 4 mg/kg, Day 9): −0.111 | Mean Tumor Volume (huCBE11 4 mg/kg, Day 9): 125.8 cubic mm | Mean Tumor Volume Decrease (huCBE11 4 mg/kg, Day 9): −14.0 cubic mm | Mean Fraction Affected (Fa) (huCBE11 4 mg/kg, Day 13): −0.048 | Mean Fraction Affected/Fraction Unaffected (Fa/Fu) (huCBE11 4 mg/kg, Day 13): −0.046 | Mean Tumor Volume (huCBE11 4 mg/kg, Day 13): 180.9 cubic mm | Mean Tumor Volume Decrease (huCBE11 4 mg/kg, Day 13): −8.3 cubic mm | Mean Fraction Affected/Fraction Unaffected (Fa/Fu) (huCBE11 4 mg/kg, Day 16): 0.070 | Mean Tumor Volume (huCBE11 4 mg/kg, Day 16): 247.6 cubic mm | Mean Tumor Volume Decrease (huCBE11 4 mg/kg, Day 16): 17.4 cubic mm | Mean Fraction Affected (Fa) (huCBE11 4 mg/kg, Day 20): 0.307 | Mean Fraction Affected/Fraction Unaffected (Fa/Fu) (huCBE11 4 mg/kg, Day 20): 0.442 | Mean Tumor Volume (huCBE11 4 mg/kg, Day 20): 278.0 cubic mm | Mean Tumor Volume Decrease (huCBE11 4 mg/kg, Day 20): 123.0 cubic mm | Mean Fraction Affected (Fa) (huCBE11 4 mg/kg, Day 23): 0.347 | Mean Fraction Affected/Fraction Unaffected (Fa/Fu) (huCBE11 4 mg/kg, Day 23): 0.531 | Mean Tumor Volume (huCBE11 4 mg/kg, Day 23): 344.3 cubic mm | Mean Tumor Volume Decrease (huCBE11 4 mg/kg, Day 23): 182.9 cubic mm | Mean Fraction Affected (Fa) (huCBE11 4 mg/kg, Day 27): 0.423 | Mean Fraction Affected/Fraction Unaffected (Fa/Fu) (huCBE11 4 mg/kg, Day 27): 0.733 | Mean Tumor Volume (huCBE11 4 mg/kg, Day 27): 385.8 cubic mm | Mean Tumor Volume Decrease (huCBE11 4 mg/kg, Day 27): 282.8 cubic mm | Mean Fraction Affected (Fa) (huCBE11 4 mg/kg, Day 30): 0.412 | Mean Fraction Affected/Fraction Unaffected (Fa/Fu) (huCBE11 4 mg/kg, Day 30): 0.700 | Mean Tumor Volume (huCBE11 4 mg/kg, Day 30): 480.1 cubic mm | Mean Tumor Volume Decrease (huCBE11 4 mg/kg, Day 30): 336.1 cubic mm | Mean Fraction Affected (Fa) (huCBE11 4 mg/kg, Day 34): 0.468 | Mean Fraction Affected/Fraction Unaffected (Fa/Fu) (huCBE11 4 mg/kg, Day 34): 0.879 | Mean Tumor Volume (huCBE11 4 mg/kg, Day 34): 558.9 cubic mm | Mean Tumor Volume Decrease (huCBE11 4 mg/kg, Day 34): 491.4 cubic mm | Mean Fraction Affected (Fa) (huCBE11 4 mg/kg, Day 37): 0.511 | Mean Fraction Affected/Fraction Unaffected (Fa/Fu) (huCBE11 4 mg/kg, Day 37): 1.044 | Mean Tumor Volume (huCBE11 4 mg/kg, Day 37): 591.1 cubic mm | Mean Tumor Volume Decrease (huCBE11 4 mg/kg, Day 37): 616.9 cubic mm | Mean Fraction Affected (Fa) (huCBE11 4 mg/kg, Day 41): 0.512 | Mean Fraction Affected/Fraction Unaffected (Fa/Fu) (huCBE11 4 mg/kg, Day 41): 1.050 | Mean Tumor Volume (huCBE11 4 mg/kg, Day 41): 702.0 cubic mm | Mean Tumor Volume Decrease (huCBE11 4 mg/kg, Day 41): 737.4 cubic mm | Mean Fraction Affected (Fa) (huCBE11 4 mg/kg, Day 43): 0.518 | Mean Fraction Affected/Fraction Unaffected (Fa/Fu) (huCBE11 4 mg/kg, Day 43): 1.073 | Mean Tumor Volume (huCBE11 4 mg/kg, Day 43): 775.1 cubic mm | Mean Tumor Volume Decrease (huCBE11 4 mg/kg, Day 43): 831.6 cubic mm | Inhibition of tumor growth vs vehicle control (huCBE11 20 mg/kg Days 16 through 55, 2 mg/kg Days 16 through 55, 0.2 mg/kg Days 20 through 55, separate study): significant inhibition of tumor growth | Mean Fraction Affected (Fa) (huCBE11 20 mg/kg alone, Day 9): 0.053 | Mean Fraction Affected (Fa) (huCBE11 20 mg/kg alone, Day 13, 20 mg/kg): 0.087 and 0.086 | Mean Fraction Affected (Fa) (huCBE11 20 mg/kg alone, Day 16, 20 mg/kg): 0.263 and 0.264 | Mean Fraction Affected (Fa) (huCBE11 20 mg/kg alone, Day 20): 0.435 | Mean Fraction Affected (Fa) (huCBE11 20 mg/kg alone, Day 23): 0.504 | Mean Fraction Affected (Fa) (huCBE11 20 mg/kg alone, Day 27): 0.576 | Mean Fraction Affected (Fa) (huCBE11 20 mg/kg alone, Day 30): 0.539 | Mean Fraction Affected (Fa) (huCBE11 20 mg/kg alone, Day 34): 0.543 | Mean Fraction Affected (Fa) (huCBE11 20 mg/kg alone, Day 37): 0.525 | Mean Fraction Affected (Fa) (huCBE11 20 mg/kg alone, Day 41): 0.538 | % T/C (huCBE11 20 mg/kg, Day 27 (lowest observed)): 42.4% | Activity by NCI criteria (% T/C at or below 42) (huCBE11, studies of the Camptosar example): inactive | Activity by NCI criteria (% T/C of 42 or less) (huCBE11, studies of the gemcitabine example): active | % T/C (huCBE11 dose groups, throughout both studies (Camptosar example)): > 42%
